Target: A2A receptor (Homo sapiens, UniProt P29274)
Assay: Human IL-2 T cell assay (restoration of IL-2 production in CGS-21680-treated CD3+ T cells)
Format: cell-based
Set-up: endogenous in cells; host or cells: human CD3+ T cells isolated from venous blood of healthy volunteers
Conditions: restoration of IL-2 production, human CD3+ T cells, anti-CD3/CD28 beads, 72 hours
From the text: When T-cells are activated, they produce pro-inflammatory cytokines. When the A2A receptor is activated in T cells, the amount of cytokines produced in response to stimulation of T-cells is reduced.
Venous blood from healthy volunteers, all of whom signed an informed consent approved by the Ethics Committee (FOR-UIC-BV-050-01-01 ICF_HBS_HD Version 5.0), was obtained via ImmuneHealth (Centre Hospitalier Universitaire Tivoli, La Louviere, Belgium). Mononuclear cells were collected by density gradient centrifugation, using SepMate-50 tubes (StemCell Technologies, Grenoble, France) and Lymphoprep (Axis-shield, Oslo, Norway) according to the manufacturer's instructions. CD3+ T cells were isolated by immunomagnetic negative selection, using the EasySep Human T Cell Isolation Kit (StemCell Technologies) as per manufacturer's instructions. CD3+ T cells were stored in heat inactivated foetal bovine serum (hiFBS; Gibco, ThermoFisher Scientific, Merelbeke, Belgium) containing 10% DMSO in liquid nitrogen.
Human purified CD3+ T cells were thawed and washed twice with RPMI1640 medium (with UltraGlutamine; Lonza, Verviers, Belgium) supplemented with 1× non-essential amino acids (Lonza), 2% Pen/Strep (Lonza) and 1 mM Sodium Pyruvate (Gibco) (complete media), containing 10% hiFBS. The cells were suspended either in complete media containing 20% hiFBS or in 100% heat inactivated human serum (hiHS; Sigma-Aldrich, Diegem, Belgium). Cells were activated by adding anti-CD3 and anti-CD28 coated microbeads (Dynabeads human T-activator CD3/CD28; Life Technologies, Paisley, UK), suspended either in complete media containing 20% hiFBS or in 100% hiHS. […] Serial dilutions of the compounds of the present invention were prepared and added to the wells. The cells were placed in a 37° C. humidified tissue culture incubator with 5% CO2 for 72 hours. After 72 hours, supernatants were sampled and IL-2 was quantified using the IL-2 (human) AlphaLISA Biotin-Free Detection Kit (AL333F; Perkin-Elmer, Zaventem, Belgium), according to the manufacturer's instructions.

Chain of A2A receptor (P29274 whole entry): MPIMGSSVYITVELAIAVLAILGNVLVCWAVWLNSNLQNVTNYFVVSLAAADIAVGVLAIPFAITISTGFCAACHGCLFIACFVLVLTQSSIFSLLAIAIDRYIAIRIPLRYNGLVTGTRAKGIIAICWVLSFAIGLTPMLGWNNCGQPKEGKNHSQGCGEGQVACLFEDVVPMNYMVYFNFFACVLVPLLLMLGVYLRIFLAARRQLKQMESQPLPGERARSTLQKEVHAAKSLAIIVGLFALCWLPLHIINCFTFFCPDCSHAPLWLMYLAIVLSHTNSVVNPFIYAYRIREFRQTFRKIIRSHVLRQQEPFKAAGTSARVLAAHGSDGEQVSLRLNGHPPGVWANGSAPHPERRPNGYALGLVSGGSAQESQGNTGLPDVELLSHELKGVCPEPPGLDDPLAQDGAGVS

Compound `NC(=O)COc1cc(N2CCN(CCn3c(=O)sc4c3nc(N)n3nc(-c5ccco5)nc43)CC2)c(F)cc1F` [Compound 4, 2-(5-(4-(2-(5-amino-8-(furan-2-yl)-2-oxothiazolo[5,4-e][1,2,4]triazolo [1,5-c]pyrimidin-3(2H)-yl)ethyl)piperazin-1-yl)-2,4-difluorophenoxy)acetamide] has an IC50 (IC50 (nM) (500 nM CGS-21680 as agonist, 10% FBS), 500 nM CGS-21680, 10% FBS) of 0.3 nM and an IC50 (IC50 (nM) (5000 nM CGS-21680 as agonist, 50% HSA), 5000 nM CGS-21680, 50% HSA) of 63 nM.

From US10995101B2, “2-oxo-thiazole derivatives as A2A inhibitors and compounds for use in the treatment of cancers” (iTeos Therapeutics SA, priority 2017, dated 2021)
